Laboratory results from patent US20260191889A1, “TREHALOSE FOR TREATING HUNTINGTON'S DISEASE” (GLD Debt Acquisition 2025-1, priority 2022, published 2026).

How the values were obtained:
[1] = system: transgenic R6/2 mice (a disease model for Huntington's Disease); experiment: Lifespan of R6/2 mice after treatment with MT; type: in vivo, Mus musculus; details: MT 5 g/kg i.p. 5 times per week from 4 weeks of age, vehicle 101, wild-type 181
Description: The objective of this study was to assess the effects of molecular trehalose (MT) in the R6/2 mouse model of Huntington's disease through intraperitoneal (IP) injections. Treated mice […] were administered (i.e. dosed) with a MT intraperitoneal (i.p.) injection. Mice were weighed twice per week until 8 weeks post infusion i.e., 12 weeks of age or followed until survival. At a minimum of 8 weeks post infusion or MT dosing, mice were sacrificed 30 minutes after last MT, and the following tissues were collected: blood, brain, and tail. Immunohistochemistry analysis for GFAP, Iba1, EM-47 and Darpp-32 were performed on brain hemisphere 1 samples and the amount of MT in blood and brain hemisphere 2 samples was determined.
Male R6/2 (B6CBA-Tg(HDexon1)62Gpb/3J) (The Jackson Laboratory, USA, JAX stock: 006494) mice (Mus musculus) between the ages of 28-33 days were used in this study. […]
Eleven male mice were treated with trehalose 5 g/kg (i.p. injection, 25 ml/kg, trehalose dose formulation concentration: 0.2 g/ml, with active trehalose corresponding to 5.252 g/kg of trehalose dihydrate), 5 times per week starting at 4 weeks of age. […] Mice were euthanized at 8 weeks after first trehalose dose (12 weeks of age, n=8). n=3 mice/group were monitored until survival. […]

[2] = Safety profile from previous clinical trials of trehalose injection; type: in vivo, human; details: metabolized by trehalase enzymes into 2 glucose molecules
Description: Risks of study participation also includes the risk of an infusion reaction or infusion site reactions. […] If needed, the use of an implanted venous access device (i.e., Mediport) or percutaneous indwelling catheter is permitted; however, if small caliber indwelling catheters in peripheral vessels is required, they should be for single use only. Additional risks include those risks related to venipuncture (e.g., hematoma, bleeding, pain, infection), which are low, and the risk of progression of disease for participants assigned to receive.

[3] = system: neurofilament light chain (NfL) protein; experiment: NfL concentration in blood serum of a subject with HD on weekly IV trehalose; type: in vivo, human; details: subject 02-001 (HD)
Description: This study consisted of a 2-week screening period, a 24-week open-label treatment period, and a 2-week safety follow-up period. Eligible subjects received substantially purified trehalose, administered as a once weekly IV infusion over 60 minutes±5 min for volumes≤600 mL or 90 minutes±5 min for volumes>600 mL. The total volume of the infusion was based on the weight of the subject and a dose of 0.75 g trehalose per kg of subject weight (g/kg). An additional 52 weeks of open-label trehalose treatment was planned for consenting subjects who were determined to be medically appropriate after their completion of the primary 24-week open-label treatment period.
Blood samples were obtained from subjects at the screening/baseline and during week 12 and week 24 for analyses. Blood serum was to determine the concentration of neurofilament light chain (NfL) protein in blood serum before and after initiation of trehalose treatment. Nfl concentrations in blood serum were measured using a Simoa® NF-light™ Advantage Kit by Quanterix. Higher concentrations of Nfl in subject blood serum is an indicator of clinical severity of HD, and lower concentrations compared to concentrations of the same subject indicates reversal or slowing of HD progression.

[4] = system: transgenic R6/2 mice (a disease model for Huntington's Disease); experiment: Body weight of R6/2 mice after treatment with MT; type: in vivo, Mus musculus; details: MT 5 g/kg i.p. 5 times per week, average±standard error (±0.6), vehicle 16.5, wild-type 30.7
Description: Eleven male mice were treated with trehalose 5 g/kg (i.p. injection, 25 ml/kg, trehalose dose formulation concentration: 0.2 g/ml, with active trehalose corresponding to 5.252 g/kg of trehalose dihydrate), 5 times per week starting at 4 weeks of age. There were a total of 41 doses or doses stopped when mice were euthanized. Mice were euthanized at 8 weeks after first trehalose dose (12 weeks of age, n=8). n=3 mice/group were monitored until survival.
Body Weights—Body weights were monitored twice per week throughout the study for all animals. Pre-trehalose treatment onset baseline body weight was used to assign the animals to experimental groups. Terminal body weights were not registered from animals found dead or euthanized moribund.
MT was administered to mice i.p. 5 times per week (from Monday to Friday). Dose volume was 25 ml/kg. Dose was 5 g/kg. Pure trehalose dose formulation concentration was 0.2 g/ml. The last dose of animals euthanized at 8 weeks post infusion (age week 12) was 30 min prior to terminal sampling.
Body Weight—Comparisons between two groups used a two-way Mixed-effects model (Mixed Anova) with Geisser-Greenhouse correction (not assuming sphericity), followed by Fisher's LSD test between the two groups performed for each time point. Time, group and the interaction of Time×Group were fixed effects, and the individual subject was the random effect. […]

[5] = administered orally in humans; cleaved by gut trehalase; cited from earlier work
[6] = system: Iba-1; experiment: Iba-1 immunohistochemistry in brain of R6/2 mice; type: in vivo, Mus musculus; details: MT-treated vs untreated transgenic R6/2 mice, FIG. 5
Description: (§1) Cryosectioning—Cryosectioning was performed to striatal (left hemisphere) (Bregma +1.30 mm to −0.8 mm from Bregma, containing the infusion site at +0.5 mm) region and sections were collected as 20 μm thick sections on slides. A series of sections consisted of 8 sections with an interval of 300 μm in-between each section. A total of 5 series were collected from the target region using subsequent slides. For phase I, Series 1 & 3 were used for IHC analysis of EM48, series 2 was used for Darpp-32, series 4 was used for Iba1+GFAP and Series 5 was used for piloting and negative controls. For phase II, A total of 6 series were collected from the target region using subsequent slides. Series 1 was used for IHC analysis of EM48, series 2 was used for Darpp-32, series 4 was used for Iba1+GFAP. […]
(§2) For fluorescence immunohistochemistry (GFAP and Iba-1) the following general protocol was applied: […]
(§3) Antigen expression analyses—The stained sections were scanned with the Olympus VS120 slide scanner using the proper fluorescent or brightfield channels. The regions of interest (ROIs) (striatum/cortex) were analyzed for positive immunostaining of the respective targets (EM48, DARPP-32, GFAP and Iba1) applying the VIS—Visiopharm Integrator System (Visiopharm, Denmark).
(§4) Positive staining of the respective antigens was detected by applying a suitable threshold which recognizes only truly positive staining. […]

[7] = system: DARPP-32; experiment: DARPP-32 immunohistochemistry in brain of R6/2 mice; type: in vivo, Mus musculus; details: MT-treated vs untreated transgenic R6/2 mice, FIG. 1
Description: as §1, with “Iba1+GFAP. Series 5 was collected as spare samples and series 6 was used for piloting and negative controls.” for “Iba1+GFAP.”
as §3, §4

[8] = system: GFAP; experiment: GFAP immunohistochemistry in brain of R6/2 mice; type: in vivo, Mus musculus; details: MT-treated vs untreated transgenic R6/2 mice, FIG. 4
Description: as §1, §2, §3, §4

[9] = system: EM48 (huntingtin protein; mHTT aggregates); experiment: EM48 immunohistochemistry in brain of R6/2 mice; type: in vivo, Mus musculus; details: MT-treated vs untreated transgenic R6/2 mice
Description: as §1, with “Iba1+GFAP. Series 5 was collected as spare samples and series 6 was used for piloting and negative controls.” for “Iba1+GFAP.”
as §3, §4

[10] = system: Huntington's disease (HD); experiment: Clinical scores of a subject with HD on weekly IV trehalose; type: in vivo, human
Description: This study consisted of a 2-week screening period, a 24-week open-label treatment period, and a 2-week safety follow-up period. Eligible subjects received substantially purified trehalose, administered as a once weekly IV infusion over 60 minutes±5 min for volumes≤600 mL or 90 minutes±5 min for volumes>600 mL. The total volume of the infusion was based on the weight of the subject and a dose of 0.75 g trehalose per kg of subject weight (g/kg). An additional 52 weeks of open-label trehalose treatment was planned for consenting subjects who were determined to be medically appropriate after their completion of the primary 24-week open-label treatment period. The primary study objectives were to determine safety and tolerability, and treatment responses associated with trehalose administered to subjects with HD. Safety and tolerability were determined by incidences of treatment-emergent adverse events (TEAEs) and serious adverse events ([…]), including clinically significant laboratory or diagnostic testing abnormalities. Laboratory samples, electrocardiograms (ECGs), and a rating on the Columbia Suicide Severity Rating Scale (C-SSRS) were obtained from the subject at the screening/baseline and during week 4, week 12, and week 24. Physical and neurological examinations of the subject were conducted at the screening/baseline and during week 12 and week 24. Vital signs and adverse events (AEs) of the subject were obtained at visits for study drug infusions and any unscheduled visits. In addition, AEs of the subject were obtained by scheduled or unscheduled telephone communications. Treatment responses were determined by assessments and comparative analyses of the following clinical scores that were obtained at the screening/baseline and follow-up study visits. All subjects completed the Patient Global Impression of Change (PGIC), the Clinical Global Impression of Change (CGIC), and the Clinical Global Impression of Severity (CGI-S) during week 4, week 8, week 12, week 18, and week 24. In addition, all participants completed the Patient's Global Impression of Severity (PGI-S), EQ Visual Analog Scale (EQ-VAS), and the CGI-S on day 1 and during week 4, week 8, week 12, week 18, and week 24. At the screening/baseline and during week 4, week 8, week 12, week 18, and week 24, subjects completed the UHDRS-TFC and the UHDRS-Independence Scale.

[11] = 3 months (12 weeks), 0.75 g/kg IV once weekly
[12] = after 3 months (12 weeks), 0.75 g/kg IV once weekly

OC[C@H]1O[C@H](O[C@H]2O[C@H](CO)[C@@H](O)[C@H](O)[C@H]2O)[C@H](O)[C@@H](O)[C@@H]1O [MT, trehalose]
median lifespan [1]: 119 days
active metabolites [2]: no active metabolites
NfL Protein Concentration ([3]; Screening / Day 0 (baseline before treatment)): 21.20 pg/mL
NfL Protein Concentration ([3]; Week 12 / Day 84, 0.75 g/kg IV once weekly): 17.55 pg/mL
NfL Protein Concentration ([3]; Week 24 / Day 168, 0.75 g/kg IV once weekly): 19.95 pg/mL
average final body weight [4]: 21.5 g
trehalose reaching systemic circulation [5]: < 0.5%
levels of Iba-1 in the striatum (IHC, % staining area) [6]: lower levels
levels of DARPP-32 in the striatum (IHC, positive cells/mm^2) [7]: lower levels
levels of GFAP in the striatum (IHC, % staining area) [8]: lower levels
levels of EM48 in the cortex (IHC, positive cells/mm^2) ([9]; FIG. 2): lower levels
levels of EM48 in the striatum (IHC, positive cells/mm^2) ([9]; FIG. 3): lower levels
CGI-S rating ([10]; 3 months (12 weeks)): A Little Better
CGIC rating ([10]; 3 months (12 weeks)): A Little Better
change in the UHDRS Functional Capacity [10, 11]: no change
change in the UHDRS Independence Scale [10, 11]: no change
Global impression of Health on a Visual Analog Scale [10, 12]: 90
mini-mental status examination (MMSE) score [10, 12]: 27
Global impression of Health on a Visual Analog Scale ([10]; baseline): 70
mini-mental status examination (MMSE) score ([10]; baseline): 26
